pKi: −log10 of the molar value.
Key:
Type in all cases: biochemical
murine iNOS = murine iNOS (Mus musculus, UniProt P29477); experiment: NOS enzyme inhibition assay, iNOS; conditions: for Selectivity n/i: ratio Ki iNOS to Ki nNOS
bovine eNOS = bovine eNOS (Bos taurus, UniProt P29473); experiment: NOS enzyme inhibition assay, eNOS; conditions: for pKi: bovine eNOS; for Selectivity n/e: ratio Ki eNOS to Ki nNOS
rat nNOS = rat nNOS (Rattus norvegicus, UniProt P29476); experiment: NOS enzyme inhibition assay, nNOS; conditions: for pKi: rat nNOS
[1] = murine iNOS, KM 8.2 μM, Ki = IC50/(1 + [S]/KM), Table 2
[2] = KM 1.7 μM, Ki = IC50/(1 + [S]/KM), Table 2
[3] = KM 1.3 μM, Ki = IC50/(1 + [S]/KM), Table 2

Chain of rat nNOS (P29476 whole entry): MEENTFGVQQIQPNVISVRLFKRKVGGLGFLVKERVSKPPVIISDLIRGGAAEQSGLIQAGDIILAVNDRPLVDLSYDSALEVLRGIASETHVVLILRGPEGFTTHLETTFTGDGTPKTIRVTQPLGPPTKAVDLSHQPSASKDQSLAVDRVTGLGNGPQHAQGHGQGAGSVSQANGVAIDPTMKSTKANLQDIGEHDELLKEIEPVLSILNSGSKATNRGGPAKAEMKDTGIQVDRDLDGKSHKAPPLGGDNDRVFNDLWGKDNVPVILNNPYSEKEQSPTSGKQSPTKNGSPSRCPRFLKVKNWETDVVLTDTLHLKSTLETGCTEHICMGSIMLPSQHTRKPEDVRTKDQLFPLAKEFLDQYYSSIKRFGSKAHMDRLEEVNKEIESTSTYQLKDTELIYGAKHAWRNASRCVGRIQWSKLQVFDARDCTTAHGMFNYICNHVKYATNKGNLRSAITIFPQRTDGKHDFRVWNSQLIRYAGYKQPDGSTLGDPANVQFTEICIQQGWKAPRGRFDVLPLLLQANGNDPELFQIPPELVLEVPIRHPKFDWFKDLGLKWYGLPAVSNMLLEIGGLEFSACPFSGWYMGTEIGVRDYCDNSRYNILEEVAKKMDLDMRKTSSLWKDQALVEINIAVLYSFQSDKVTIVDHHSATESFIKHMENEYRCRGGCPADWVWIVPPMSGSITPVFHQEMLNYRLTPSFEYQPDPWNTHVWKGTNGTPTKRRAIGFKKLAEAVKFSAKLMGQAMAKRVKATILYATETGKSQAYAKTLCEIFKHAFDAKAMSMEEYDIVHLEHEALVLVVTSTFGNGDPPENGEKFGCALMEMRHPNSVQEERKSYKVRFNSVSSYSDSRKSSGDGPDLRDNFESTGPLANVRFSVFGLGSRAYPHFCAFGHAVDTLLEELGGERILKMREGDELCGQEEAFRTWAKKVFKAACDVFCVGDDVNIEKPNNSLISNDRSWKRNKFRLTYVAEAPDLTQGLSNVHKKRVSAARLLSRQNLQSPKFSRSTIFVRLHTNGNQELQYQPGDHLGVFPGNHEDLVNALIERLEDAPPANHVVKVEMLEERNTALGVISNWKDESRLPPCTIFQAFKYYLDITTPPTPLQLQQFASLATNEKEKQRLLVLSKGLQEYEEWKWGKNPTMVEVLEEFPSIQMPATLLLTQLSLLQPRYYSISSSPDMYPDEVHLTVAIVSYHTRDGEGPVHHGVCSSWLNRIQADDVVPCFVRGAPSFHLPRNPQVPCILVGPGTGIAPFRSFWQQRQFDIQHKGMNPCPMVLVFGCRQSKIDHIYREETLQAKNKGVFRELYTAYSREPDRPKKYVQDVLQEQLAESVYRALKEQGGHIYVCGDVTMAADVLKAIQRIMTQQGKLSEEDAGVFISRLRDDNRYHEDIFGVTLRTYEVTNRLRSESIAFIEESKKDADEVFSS
Chain of bovine eNOS (P29473 whole entry): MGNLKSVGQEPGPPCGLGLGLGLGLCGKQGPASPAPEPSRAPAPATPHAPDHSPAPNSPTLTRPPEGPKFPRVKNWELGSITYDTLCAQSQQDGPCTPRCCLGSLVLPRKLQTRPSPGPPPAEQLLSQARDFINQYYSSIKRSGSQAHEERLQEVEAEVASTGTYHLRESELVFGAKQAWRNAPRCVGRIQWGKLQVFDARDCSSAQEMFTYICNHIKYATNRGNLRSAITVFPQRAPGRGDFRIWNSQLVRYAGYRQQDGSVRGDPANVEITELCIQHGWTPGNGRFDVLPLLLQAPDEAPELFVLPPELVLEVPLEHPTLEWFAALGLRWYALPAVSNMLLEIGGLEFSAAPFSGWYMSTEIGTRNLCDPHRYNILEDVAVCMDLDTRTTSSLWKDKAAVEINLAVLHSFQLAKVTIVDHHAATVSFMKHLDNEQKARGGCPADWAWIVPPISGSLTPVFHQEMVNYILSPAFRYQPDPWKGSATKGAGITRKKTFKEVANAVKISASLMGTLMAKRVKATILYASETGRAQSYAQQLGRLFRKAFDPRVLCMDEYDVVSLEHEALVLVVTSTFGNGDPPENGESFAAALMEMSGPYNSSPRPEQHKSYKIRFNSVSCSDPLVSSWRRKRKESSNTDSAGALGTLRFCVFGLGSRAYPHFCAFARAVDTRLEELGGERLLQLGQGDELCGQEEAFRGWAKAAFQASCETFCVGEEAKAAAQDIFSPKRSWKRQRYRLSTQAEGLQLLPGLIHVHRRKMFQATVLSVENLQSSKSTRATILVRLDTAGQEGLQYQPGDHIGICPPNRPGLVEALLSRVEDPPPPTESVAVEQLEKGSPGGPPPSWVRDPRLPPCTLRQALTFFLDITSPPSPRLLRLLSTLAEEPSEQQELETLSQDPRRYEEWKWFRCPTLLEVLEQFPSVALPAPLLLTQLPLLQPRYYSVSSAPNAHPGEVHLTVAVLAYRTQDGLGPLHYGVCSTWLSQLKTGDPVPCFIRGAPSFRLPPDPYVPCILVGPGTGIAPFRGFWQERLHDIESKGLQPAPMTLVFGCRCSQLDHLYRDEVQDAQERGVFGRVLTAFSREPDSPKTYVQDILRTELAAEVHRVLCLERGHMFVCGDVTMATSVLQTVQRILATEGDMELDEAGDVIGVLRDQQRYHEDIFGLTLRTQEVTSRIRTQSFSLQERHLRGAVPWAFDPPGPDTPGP

SMILES	pKi (murine iNOS; in vitro, Table 1)	Selectivity n/i (murine iNOS; Table 1)	pKi (bovine eNOS; in vitro, Table 1)	Selectivity n/e (bovine eNOS; Table 1)	pKi (rat nNOS; in vitro, Table 1)	n/i, ratio of Ki (iNOS) to nNOS (murine iNOS; Table 2)	pKi (murine iNOS; [1])	n/e, ratio of Ki (eNOS) to nNOS (bovine eNOS; Table 2)	pKi (bovine eNOS; [2])	pKi (rat nNOS; [3])	nNOS selectivity over eNOS compared with Ji19 (bovine eNOS; comment on Table 2)	nNOS potency compared with Ji19 (rat nNOS; comment on Table 2)
Cc1cc(N)nc(C[C@@H]2CNC[C@@H]2OCCCCc2ccccn2)c1 [22a]	4.90	5.4	4.80	6.8	5.63							
Cc1ccnc(CCCCO[C@H]2CNC[C@H]2Cc2cc(C)cc(N)n2)c1 [22b]	4.75	16.5	4.59	23.6	5.97							
COc1ccnc(CCCCO[C@H]2CNC[C@H]2Cc2cc(C)cc(N)n2)c1 [22c]	5.26	31.3	5.26	31.5	6.76							
Cc1cc(N)nc(C[C@@H]2CNC[C@@H]2OCCCOc2ccc(F)c(C(F)(F)F)c2)c1 [25a]	4.84	5.8	5.30	2.0	5.60							
Cc1cc(N)nc(C[C@@H]2CNC[C@@H]2OCCCOc2ccc(F)c(Cl)c2)c1 [25b]	4.73	5.5	4.98	3.1	5.48							
Cc1cc(N)nc(C[C@@H]2CNC[C@@H]2OCCCOc2cc(F)cc(C(F)(F)F)c2)c1 [25c]	4.49	19.3	5.30	3.0	5.78							
Cc1cc(N)nc(C[C@@H]2CNC[C@@H]2OCCCOc2cc(F)cc(Cl)c2)c1 [25d]	4.39	90.6	5.04	19.9	6.34							
Cc1cc(N)nc(C[C@@H]2CNC[C@@H]2OCCCOc2cc(Cl)cc(C(F)(F)F)c2)c1 [25e]	4.59	27.5	5.86	1.5	6.03							
Cc1cc(N)nc(C[C@@H]2CNC[C@@H]2OCCCOc2cc(C(F)(F)F)cc(C(F)(F)F)c2)c1 [25f]	4.91	23.7	5.57	5.2	6.29							
Cc1cc(N)nc(C[C@@H]2CNC[C@@H]2OCCCCCc2cccc(F)c2)c1.Cl.Cl [HH001]						91	4.08	37	4.47	6.04		
Cc1cc(N)nc(C[C@@H]2CNC[C@@H]2OCCCCCc2cc(F)cc(Cl)c2)c1 [HH002, 6-(((3R,4R)-4-((5-(3-chloro-5-fluorophenyl)pentyl)oxy)pyrrolidin-3-yl)methyl)-4-methylpyridin-2-amine]						461	3.97	155	4.45	6.64		
Cc1cc(N)nc(C[C@@H]2CNC[C@@H]2OCCC/C=C/c2cccc(F)c2)c1 [HH003, 6-(((3R,4R)-4-(((E)-5-(3-fluorophenyl)pent-4-en-1-yl)oxy)pyrrolidin-3-yl)methyl)-4-methylpyridin-2-amine]						55	4.45	121	4.11	6.20		
Cc1cc(N)nc(C[C@H]2CNC[C@H]2OCCCCCc2cccc(F)c2)c1.Cl.Cl [HH004]						52	3.33	4	4.47	5.04		
Cc1cc(N)nc(C[C@H]2CNC[C@H]2OCCC/C=C/c2cccc(F)c2)c1.Cl.Cl [HH005]						9	3.87	4	4.16	4.81		
Cc1cc(N)nc(C[C@@H]2CNC[C@@H]2OCCCCCc2cccc(N)c2)c1 [HH008, 6-(((3R,4R)-4-((5-(3-aminophenyl)pentyl)oxy)pyrrolidin-3-yl)methyl)-4-methylpyridin-2-amine]						619		1117				
Cc1cc(N)nc(C[C@@H]2CNC[C@@H]2OCCCCNc2ccccn2)c1.Cl.Cl.Cl [Ji20]						54	6.31	154	5.86	8.05	lower nNOS selectivity over eNOS	higher nNOS potency
Cc1cc(N)nc(C[C@H]2CNC[C@H]2OCCCCNc2ccccn2)c1.Cl.Cl.Cl [Ji21]						27	6.01	157	5.25	7.44		
Cc1cc(N)nc(C[C@@H]2CNC[C@@H]2OCCCCOc2cc(F)cc(F)c2)c1.Cl.Cl [Ji22]						32	4.42	122	3.84	5.92		
Cc1cc(N)nc(C[C@@H]2CNC[C@@H]2OCCCCOc2cc(F)cc(Cl)c2)c1.Cl.Cl [Ji23]						106	4.91	37	5.36	6.93		
COc1ccnc(/C=C/CCO[C@H]2CNC[C@H]2Cc2cc(C)cc(N)n2)c1 [compound 23]	5.61	7.1	5.65	6.3	6.45							
